Experimental data taken from PMC2720952 (BMC Evolutionary Biology, 2009).

What was measured:
C. pneumoniae AaxC = C. pneumoniae AaxC (Chlamydia pneumoniae, UniProt Q9Z6M8); settings: 1 mM L-arginine, E medium pH 5, 37 °C, 20 min; AaxB co-expressed; labelled compound
[1] = molecular target: AaxC (CT374) from C. trachomatis D/UW-3 (Chlamydia trachomatis, UniProt O84379); settings: 1 mM L-arginine, E medium pH 5, 37 °C, 20 min; AaxB co-expressed; labelled compound
AaxC (CT374) from C. trachomatis D/UW-3, sequence (O84379 whole entry): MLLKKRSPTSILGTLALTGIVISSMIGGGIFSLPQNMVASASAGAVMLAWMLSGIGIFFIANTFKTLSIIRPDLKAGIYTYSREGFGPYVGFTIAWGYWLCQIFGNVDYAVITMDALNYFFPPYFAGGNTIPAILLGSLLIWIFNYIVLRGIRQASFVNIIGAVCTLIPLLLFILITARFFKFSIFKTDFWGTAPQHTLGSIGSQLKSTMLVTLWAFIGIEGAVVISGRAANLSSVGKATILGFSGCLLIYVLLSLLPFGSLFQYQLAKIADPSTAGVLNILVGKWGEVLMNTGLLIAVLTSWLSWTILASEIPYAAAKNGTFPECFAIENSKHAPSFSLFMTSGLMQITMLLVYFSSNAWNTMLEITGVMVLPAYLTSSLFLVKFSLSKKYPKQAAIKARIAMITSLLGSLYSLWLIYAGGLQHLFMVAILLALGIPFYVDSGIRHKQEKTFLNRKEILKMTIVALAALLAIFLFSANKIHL

C. pneumoniae AaxC, sequence (Q9Z6M8 whole entry): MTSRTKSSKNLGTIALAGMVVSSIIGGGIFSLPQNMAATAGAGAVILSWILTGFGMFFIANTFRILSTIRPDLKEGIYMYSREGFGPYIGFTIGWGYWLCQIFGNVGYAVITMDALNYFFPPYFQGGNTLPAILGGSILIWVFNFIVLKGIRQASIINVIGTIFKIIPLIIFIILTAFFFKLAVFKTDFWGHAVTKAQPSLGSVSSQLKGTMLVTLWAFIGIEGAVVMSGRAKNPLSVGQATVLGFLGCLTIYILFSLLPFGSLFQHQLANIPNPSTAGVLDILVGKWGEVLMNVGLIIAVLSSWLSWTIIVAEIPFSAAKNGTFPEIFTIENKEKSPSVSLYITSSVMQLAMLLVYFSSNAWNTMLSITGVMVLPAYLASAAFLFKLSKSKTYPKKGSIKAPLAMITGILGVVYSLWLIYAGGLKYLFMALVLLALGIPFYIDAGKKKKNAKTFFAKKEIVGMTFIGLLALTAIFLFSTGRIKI

N=C(N)NCCC[C@H](N)C(=O)O [L-arginine]
uptake of L-[2,3,4,5-3H]arginine by E. coli DEG0147 cells, filtration (C. pneumoniae AaxC): A significant difference in samples expressing C. pneumoniae aaxBC (relative to pBAD/HisA)
uptake of L-[2,3,4,5-3H]arginine by E. coli DEG0147 cells, filtration [1]: cells expressing D/UW-3 strain aaxBC genes showed significantly enhanced uptake
